The subject of data set [1] is panel of experts in the sensory evaluation of foods and beverages. Briefly: Sensory evaluation of sweetness linger by expert panel. Format: in vivo. More on the design: key: 0: no sweetness linger; 1: very slight sweetness linger; 2: slight sweetness linger; 3: moderate sweetness linger; 4: moderately high sweetness linger; 5: high sweetness linger. The note with it: for Sweetness Linger rating (defined for controls): ratings defined for the protocol, REBA control sample 500 ppm; for sweetness linger: scale 0-5. On the procedure:
Sensory evaluation of the samples prepared in Example Set G was carried out under the following protocol, similar to that described hereinabove. In this test protocol, none of the samples were swallowed. All samples were expectorated and the mouth was rinsed with water after the tasting. Immediately upon sensing maximal sweetness, the sample was expectorated, the mouth was rinsed with water and the rate of sweetness decay (“Sweetness Linger”) was measured, where attention was focused on the sweetness 3-4 min after the water rinse. After sample tasting was complete, a salty oyster cracker was chewed followed by a water rinse, and at least 5 minutes followed before tasting the next sample. The sweetness linger was rated by a panel of experts in the sensory evaluation of foods and beverages using the following scale: 0=no sweetness linger, 1 =very slight sweetness linger, 2 slight sweetness linger, 3=moderate sweetness linger, 4 =moderately high sweetness linger, 5 high sweetness linger.
The “Sweetness Linger” rating for sucrose observed by this protocol is defined as 0. The Sweetness Linger of a 500 ppm of REBA control sample is defined as 5. Experimental samples were tasted by the same protocol, always allowing sufficient time between samples to ensure re-equilibration of the sensory system. Re-tasting of control samples during the course of the experiment was allowed and encouraged.
The comparison taste test was performed between two controls and addition of sweet taste improving additive on the onset and/or sweetness linger.
Sweet taste improving compositions were combined with a REBA solution to determine their effect on sweetness linger. Screening of the initial sample, or further dilutions, allowed identification of concentrations which were just above-threshold, herein defined as “near-threshold concentrations.” The near-threshold additive concentrations, a 6- to 100-fold higher additive concentration (depending on the off-taste intensity), and a mid-level additive concentration (halfway between the near-threshold and higher additive concentration) were evaluated to determine the effect on sweetness linger of a REBA solution. […]
Sensory evaluation using the protocol described in Example Set G then was used to evaluate the sweetness linger of the REBA solutions.

Data set [2] is classed as physicochemical. On the procedure: A solution of rebaudioside A (>97% pure by HPLC) was prepared in double distilled water (12.5 gm in 50 mL, 25% concentration) by stirring the mixture at 40° C. for 5 minutes. An amorphous form of rebaudioside A was formed by immediately using the clear solution for spray drying with the Lab-Plant spray drier SD-04 instrument (Lab-Plant Ltd., West Yorkshire, U.K.). The solution was fed through the feed pump into the nozzle atomizer which atomized it into a spray of droplets with the help of a constant flow of nitrogen/air. […] This dry powder (11-12 g, H2O 6.74%) was discharged continuously from the drying chamber and was collected in a bottle.

Data set [3] is described as follows: Rate of dissolution of rebaudioside A polymorphs in H2O. It is filed as physicochemical.

`OC[C@H]1O[C@@](CO)(O[C@H]2O[C@H](CO)[C@@H](O)[C@H](O)[C@H]2O)[C@@H](O)[C@@H]1O` [sugar, sucrose, reference compound]: the “Sweetness Linger rating (defined for controls)” value in data set [1] is 0.
Take rebaudioside A: the sweetness linger in data set [1] (Example Set G: 400 ppm REBA in citric acid/potassium citrate composition equivalent to that in a diet lemon-lime beverage, sweetness 3-4 min after water rinse) was determined as 5; in data set [1] (Example Set H: 500 ppm REBA (H41: 360 ppm) in carbon-treated water, phosphoric acid (75%) to pH 2.4-2.5), 5. Besides, in data set [1], the “Sweetness Linger rating (defined for controls)” value amounted to 5.
For the molecule rebaudioside A [F], the “solubility in water at room temperature” value in data set [2] is recorded as over 35.0%.
On to rebaudioside A [Form 1], for which, in data set [3], the “Rate of dissolution in H2O at 25° C.” value is given as “Very low (<0.2%/ %/60 minutes”.

These data come from US20070116833A1, “High-Potency Sweetener Composition with Calcium and Compositions Sweetened Therewith” (THE COCA-COLA COMPANY, priority 2005, published 2007).
